Assay results from US20250195530A1, “POLQ INHIBITORS” (ASTRAZENECA AB, priority 2022, published 2025).

Legend:
[1] = tested on: DLD-1 cells; assay: Inhibition of proliferation, DLD-1 BRCA2 wt control (Cell Titre Glo 3D); assay type: cell-based; settings: Homo sapiens, DLD-1, second proliferation column (c6), taken as DLD-1 BRCA2 wt; read-out: POLQ PD Prolif Lumin (converted)
Procedure, shortened: (§1)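 Isogenic DLD-1 pair; BRCA2−/− seeded 3,000 cells/mL and read day 12, wt seeded 1,500 cells/mL and read day 7. 10-pt titration (top 10 μM, 3-fold), re-fed with compound day 6, 37 °C/5% CO2. CTG 3D endpoint; IC50 at 50% signal loss.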

[2] = tested on: DLD-1 BRCA2−/− cells; assay: Homologous recombination synthetic lethal inhibition of proliferation, DLD-1 BRCA2-/- (Cell Titre Glo 3D); assay type: cell-based; settings: Homo sapiens, DLD-1, first proliferation column (c5), taken as DLD-1 BRCA2-/-; read-out: POLQ PD Prolif Lumin (converted)
Procedure, shortened: as §1

SMILES	IC50 [1]	IC50 [2]
CC1(Oc2ncnc3c2nc(-c2ccc(OCCCOCC(=O)O)cc2Cl)n3Cc2cccc(Cl)c2)CC1 [Example T302, 2-(3-(3-chloro-4-(9-(3-chlorobenzyl)-6-(1-methylcyclopropoxy)-9H-purin-8-yl)phenoxy)propoxy)acetic acid]	> 10 µM	0.316 µM
CC1(Oc2ncnc3c2nc(-c2cccc(OCCCOCC(=O)O)c2Cl)n3Cc2cccc(Cl)c2)CC1 [Example T304, 2-(3-(2-chloro-3-(9-(3-chlorobenzyl)-6-(1-methylcyclopropoxy)-9H-purin-8-yl)phenoxy)propoxy)acetic acid]	> 10 µM	0.1 µM
CC1(Oc2ncnc3c2nc(-c2ccc(OCCN4CC(O)C4)cc2Cl)n3Cc2cc(C(F)F)ccn2)CC1 [Example T307, 1-(2-(3-chloro-4-(9-((4-(difluoromethyl)pyridin-2-yl)methyl)-6-(1-methylcyclopropoxy)-9H-purin-8-yl)phenoxy)ethyl)azetidin-3-ol]	> 10 µM	1.58 µM
Cc1ccnc(Cn2c(-c3ccc(CC(=O)N4CCC4)cc3Cl)nc3c(OC4(C)CC4)ncnc32)c1 [Example T308, 1-(azetidin-1-yl)-2-(3-chloro-4-(6-(1-methylcyclopropoxy)-9-((4-methylpyridin-2-yl)methyl)-9H-purin-8-yl)phenyl)ethan-1-one]	> 10 µM	0.316 µM
Cc1ccnc(Cn2c(-c3ccc(CC(=O)NC4CC4)cc3Cl)nc3c(OC4(C)CC4)ncnc32)c1 [Example T310, 2-(3-chloro-4-(6-(1-methylcyclopropoxy)-9-((4-methylpyridin-2-yl)methyl)-9H-purin-8-yl)phenyl)-N-cyclopropylacetamide]	> 10 µM	0.398 µM
Cc1ccnc(Cn2c(-c3ccc(C(=O)N4CC[C@@H](O)C4)cc3Cl)nc3c(OC4(C)CC4)ncnc32)c1 [Example T311, (R)-(3-chloro-4-(6-(1-methylcyclopropoxy)-9-((4-methylpyridin-2-yl)methyl)-9H-purin-8-yl)phenyl)(3-hydroxypyrrolidin-1-yl)methanone]	> 10 µM	3.98 µM
CC1(Oc2ncnc3c2nc(-c2ccc(OCCCC(=O)NS(C)(=O)=O)cc2Cl)n3Cc2cccc(Cl)c2)CC1 [Example T326, 4-(3-chloro-4-(9-(3-chlorobenzyl)-6-(1-methylcyclopropoxy)-9H-purin-8-yl)phenoxy)-N-(methylsulfonyl)butanamide]	> 10 µM	0.631 µM
CN(C)CCCOc1ccc(-c2nc3c(OC4(C)CC4)ncnc3n2Cc2cc(C(F)(F)F)ccn2)c(Cl)c1 [Example T329, 3-(3-chloro-4-(6-(1-methylcyclopropoxy)-9-((4-(trifluoromethyl)pyridin-2-yl)methyl)-9H-purin-8-yl)phenoxy)-N,N-dimethylpropan-1-amine]	10 µM	0.126 µM
Cc1ccnc(Cn2c(-c3ccc(OC4CCS(=O)(=O)CC4)cc3Cl)nc3c(OC4(C)CC4)ncnc32)c1 [Example T335, 4-(3-chloro-4-(6-(1-methylcyclopropoxy)-9-((4-methylpyridin-2-yl)methyl)-9H-purin-8-yl)phenoxy)tetrahydro-2H-thiopyran 1,1-dioxide]	> 10 µM	0.251 µM
Cc1ccnc(Cn2c(-c3ccc(N4C[C@H]5C[C@@H]4CN5)cc3Cl)nc3c(OC4(C)CC4)ncnc32)c1 [Example T336, 8-(4-((1R,4R)-2,5-diazabicyclo[2.2.1]heptan-2-yl)-2-chlorophenyl)-6-(1-methylcyclopropoxy)-9-((4-methylpyridin-2-yl)methyl)-9H-purine]	> 10 µM	1.58 µM
Cc1ccnc(Cn2c(-c3ccc(C(=O)N4CCNCC4)cc3Cl)nc3c(OC4(C)CC4)ncnc32)c1 [Example T337, (3-chloro-4-(6-(1-methylcyclopropoxy)-9-((4-methylpyridin-2-yl)methyl)-9H-purin-8-yl)phenyl)(piperazin-1-yl)methanone]	> 10 µM	5.01 µM
Cc1ccnc(Cn2c(-c3ccc(NC(=O)N4CC[C@@H](O)C4)cc3Cl)nc3c(OC4(C)CC4)ncnc32)c1 [Example T342, (R)-N-(3-chloro-4-(6-(1-methylcyclopropoxy)-9-((4-methylpyridin-2-yl)methyl)-9H-purin-8-yl)phenyl)-3-hydroxypyrrolidine-1-carboxamide]	> 10 µM	> 3.98 µM
CC1(Oc2ncnc3c2nc(-c2ccc(OCCN4CCNCC4)cc2Cl)n3Cc2nccc(Cl)c2F)CC1 [Example T345, 9-((4-chloro-3-fluoropyridin-2-yl)methyl)-8-(2-chloro-4-(2-(piperazin-1-yl)ethoxy)phenyl)-6-(1-methylcyclopropoxy)-9H-purine]	10 µM	0.794 µM
CC1(Oc2ncnc3c2nc(-c2ccc(OCCN4CCNCC4)cc2Cl)n3Cc2cc(Cl)c(F)cn2)CC1 [Example T346, 8-(2-chloro-4-(2-(piperazin-1-yl)ethoxy)phenyl)-9-((4-chloro-5-fluoropyridin-2-yl)methyl)-6-(1-methylcyclopropoxy)-9H-purine]	> 10 µM	1.58 µM
CC1(Oc2ncnc3c2nc(-c2ccc(OCCCN4CC(O)C4)cc2Cl)n3Cc2cc(Cl)ccn2)CC1 [Example T347, 1-(3-(3-chloro-4-(9-((4-chloropyridin-2-yl)methyl)-6-(1-methylcyclopropoxy)-9H-purin-8-yl)phenoxy)propyl)azetidin-3-ol]	> 7.94 µM	0.158 µM
CC1(Oc2ncnc3c2nc(-c2ccc(OCCN4CCNCC4)cc2Br)n3Cc2cc(Cl)ccn2)CC1 [Example T348, 8-(2-bromo-4-(2-(piperazin-1-yl)ethoxy)phenyl)-9-((4-chloropyridin-2-yl)methyl)-6-(1-methylcyclopropoxy)-9H-purine]	> 10 µM	0.126 µM
CC1(Oc2ncnc3c2nc(-c2ccc(OCCN4CCNCC4)cc2F)n3Cc2cc(Cl)ccn2)CC1 [Example T349, 9-((4-chloropyridin-2-yl)methyl)-8-(2-fluoro-4-(2-(piperazin-1-yl)ethoxy)phenyl)-6-(1-methylcyclopropoxy)-9H-purine]	> 10 µM	0.631 µM
CN(C)CCCOc1ccc(-c2nc3c(OC4(C)CC4)ncnc3n2Cc2cc(C(F)F)ccn2)c(Cl)c1 [Example T352, 3-(3-chloro-4-(9-((4-(difluoromethyl)pyridin-2-yl)methyl)-6-(1-methylcyclopropoxy)-9H-purin-8-yl)phenoxy)-N,N-dimethylpropan-1-amine]	> 10 µM	0.158 µM
Cc1ccnc(Cn2c(-c3ccc(CN4CC[C@@H](O)C4)cc3Cl)nc3c(OC4(C)CC4)ncnc32)c1 [Example T353, (R)-1-(3-chloro-4-(6-(1-methylcyclopropoxy)-9-((4-methylpyridin-2-yl)methyl)-9H-purin-8-yl)benzyl)pyrrolidin-3-ol]	> 10 µM	0.316 µM
Cc1ccnc(Cn2c(-c3ccc(OC4CCNCC4)cc3Cl)nc3c(OC4(C)CC4)ncnc32)c1 [Example T354, 8-(2-chloro-4-(piperidin-4-yloxy)phenyl)-6-(1-methylcyclopropoxy)-9-((4-methylpyridin-2-yl)methyl)-9H-purine]	> 10 µM	0.501 µM
Cc1ccnc(Cn2c(-c3ccc(CCN4CC(O)C4)cc3Cl)nc3c(OC4(C)CC4)ncnc32)c1 [Example T355, 1-(3-chloro-4-(6-(1-methylcyclopropoxy)-9-((4-methylpyridin-2-yl)methyl)-9H-purin-8-yl)phenethyl)azetidin-3-ol]	> 10 µM	0.631 µM
Cc1ccnc(Cn2c(-c3ccc(OC[C@H]4CCCN4)cc3Cl)nc3c(OC4(C)CC4)ncnc32)c1 [Example T356, (R)-8-(2-chloro-4-(pyrrolidin-2-ylmethoxy)phenyl)-6-(1-methylcyclopropoxy)-9-((4-methylpyridin-2-yl)methyl)-9H-purine]	> 10 µM	0.2 µM
Cc1ccnc(Cn2c(-c3ccc(CC(=O)NC(C)C)cc3Cl)nc3c(OC4(C)CC4)ncnc32)c1 [Example T357, 2-(3-chloro-4-(6-(1-methylcyclopropoxy)-9-((4-methylpyridin-2-yl)methyl)-9H-purin-8-yl)phenyl)-N-isopropylacetamide]	> 10 µM	0.398 µM
Cc1cnc(Cn2c(-c3ccc(OC4CC5(C4)CN(C)C5)cc3Cl)nc3c(OC4(C)CC4)ncnc32)s1 [Example T359, 2-((8-(2-chloro-4-((2-methyl-2-azaspiro[3.3]heptan-6-yl)oxy)phenyl)-6-(1-methylcyclopropoxy)-9H-purin-9-yl)methyl)-5-methylthiazole]	> 10 µM	0.501 µM
Cc1ccnc(Cn2c(-c3cccc(OCCN4CC(O)C4)c3Cl)nc3c(OC4(C)CC4)ncnc32)c1 [Example T360, 1-(2-(2-chloro-3-(6-(1-methylcyclopropoxy)-9-((4-methylpyridin-2-yl)methyl)-9H-purin-8-yl)phenoxy)ethyl)azetidin-3-ol]	> 10 µM	0.794 µM
Cc1ccnc(Cn2c(-c3ccc(C(=O)NCC(C)(C)O)cc3Cl)nc3c(OC4(C)CC4)ncnc32)c1 [Example T363, 3-chloro-N-(2-hydroxy-2-methylpropyl)-4-(6-(1-methylcyclopropoxy)-9-((4-methylpyridin-2-yl)methyl)-9H-purin-8-yl)benzamide]	> 10 µM	0.794 µM
Cc1ccnc(Cn2c(-c3ccc(CC(=O)N(C)CCO)cc3Cl)nc3c(OC4(C)CC4)ncnc32)c1 [Example T369, 2-(3-chloro-4-(6-(1-methylcyclopropoxy)-9-((4-methylpyridin-2-yl)methyl)-9H-purin-8-yl)phenyl)-N-(2-hydroxyethyl)-N-methylacetamide]	> 10 µM	1 µM
